These results are taken from US10000450B2, “N,N-substituted 3-aminopyrrolidine compounds useful as monoamines reuptake inhibitors” (OTSUKA PHARMACEUTICAL CO., LTD., priority 2005, dated 2018).

Counter-ions that a name gives are not always drawn.

Holding throughout (format): biochemical
In experiment [1] the target is T1, Serotonin (5-HT) uptake into rat brain synaptosome (frontal cortex) (Rattus norvegicus, UniProt P31652).
T1 construct: used as crude synaptosome fractions; from tissue; host or cells: rat (male Wistar) frontal cortex, crude synaptosome fraction
T1 sequence (P31652 whole entry): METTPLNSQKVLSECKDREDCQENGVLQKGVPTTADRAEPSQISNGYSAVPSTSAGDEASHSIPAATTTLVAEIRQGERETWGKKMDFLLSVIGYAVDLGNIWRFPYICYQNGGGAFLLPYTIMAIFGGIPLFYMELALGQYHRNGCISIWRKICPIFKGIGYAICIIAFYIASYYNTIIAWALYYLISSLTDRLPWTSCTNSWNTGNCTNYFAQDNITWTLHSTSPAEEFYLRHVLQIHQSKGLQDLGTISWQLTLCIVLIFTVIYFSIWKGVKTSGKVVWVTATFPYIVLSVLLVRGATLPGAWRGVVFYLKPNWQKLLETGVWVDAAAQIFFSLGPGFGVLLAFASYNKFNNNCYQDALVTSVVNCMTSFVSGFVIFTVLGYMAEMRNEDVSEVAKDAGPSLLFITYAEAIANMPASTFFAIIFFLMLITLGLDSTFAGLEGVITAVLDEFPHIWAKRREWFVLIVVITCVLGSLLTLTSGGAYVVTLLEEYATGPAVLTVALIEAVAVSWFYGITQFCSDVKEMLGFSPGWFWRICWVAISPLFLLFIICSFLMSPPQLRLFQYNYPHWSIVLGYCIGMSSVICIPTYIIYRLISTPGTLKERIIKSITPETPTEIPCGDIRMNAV
The experiment is described as follows: Inhibitory activity on serotonin (5-HT) uptake into rat brain synaptosome. The note with it: tritium-labeled 5-HT 8 nM uptake, 10 min at 37° C., read-out: 50% inhibittory concentration. As to the method: Pharmacological Test 1 Evaluation of Inhibitory Activity of Test Compound on Serotonin (5-HT) Uptake into Rat Brain Synaptosome
(§1) Male Wistar rats were decapitated and the brains were removed and the frontal cortices were dissected. The separated frontal cortices were homogenized in 20 volumes as weight of 0.32 M sucrose solution by a Potter-type homogenizer. The homogenate was centrifuged at 1000 g at 4° C. for 10 minutes, and the supernatant was then centrifuged at 20000 g at 4° C. for 20 minutes. The pellet was resuspended in incubation buffer (20 mM HEPES buffer (pH 7.4)) containing 10 mM glucose, 145 mM sodium chloride, 4.5 mM potassium chloride, 1.2 mM magnesium chloride, and 1.5 mM calcium chloride) and used as crude synaptosome fractions.
(§2) The uptake reaction mixture was suspended in a final volume of 200 μl containing pargyline (final concentration of 10 μM) and sodium ascorbate (final concentration of 0.2 mg/ml) in each well of 96-well-round-bottom-plate.
Solvent, unlabeled 5-HT, and serial diluted test compounds were added in each well, and synaptosome fraction of 1/10 volume of the final volume were added. After a 10 min preincubation at 37° C., the uptake was initiated by the addition of tritium-labeled 5-HT solution (final concentration of 8 nM) at 37° C. The uptake was stopped after 10 minutes by filtration under vacuum through a 96-well glass fiber filter plate. After washing the filter with cold physiological saline and drying up, Microscint-O (Perkin-Elmer) was added, and remained radioactivity on the filter was measured.
The total uptake activity with only solvent was determined as 100%, and the nonspecific uptake activity with unlabeled 5-HT (final concentration of 10 μM) was determined as 0%. The 50% inhibitory concentrations were calculated based on the concentrations of the test compounds and their inhibitory activities.

Experiment [2] has as its target T2, Norepinephrine (NE) uptake into rat brain synaptosome (hippocampus) (Rattus norvegicus, UniProt Q63380).
T2 construct: used as crude synaptosome fraction; from tissue; host or cells: rat (male Wistar) hippocampus, crude synaptosome fraction
Put plainly: Inhibitory activity on norepinephrine (NE) uptake into rat brain synaptosome. As to conditions: tritium-labeled NE 12 nM uptake, 10 min at 37° C., read-out: 50% inhibitory concentration. As to the method:
Pharmacological Test 2 Evaluation of Inhibitory Activity of Test Compound on Norepinephrine (NE) Uptake into Rat Brain Synaptosome
as §1, with “hippocampi” for “frontal cortices”, “fraction.” for “fractions.”
The uptake reaction mixture was suspended in final volume of 200 μl containing pargyline (final concentration of 10 μM) and sodium ascorbate (final concentration of 0.2 mg/ml) in each well of 96-well-round-bottom-plate.
Solvent, unlabeled NE, and serial diluted test compounds were added to each well, and synaptosome fraction of 1/10 volume of the final volume were added. After 10 minutes preincubation at 37° C., the uptake was initiated by the addition of tritium-labeled NE solution (final concentration of 12 nM) at 37° C. The uptake was stopped after 10 minutes by filtration under vacuum through a 96-well glass fiber filter plate. After washing the filter with cold physiological saline and drying up, Microscint-0 (Perkin-Elmer) was added, and remained radioactivity on the filter was measured.
The total uptake activity with only solvent was determined as 100%, and the nonspecific uptake activity with unlabeled NE (final concentration of 10 μM) was determined as 0%. The 50% inhibitory concentrations were calculated based on the concentrations of the test compounds and their inhibitory activities.

The target of experiment [3] is T3, Dopamine (DA) uptake into rat brain synaptosome (striatum) (Rattus norvegicus, UniProt P23977).
T3 construct: used as crude synaptosome fraction; from tissue; host or cells: rat (male Wistar) striatum, crude synaptosome fraction
T3 sequence (P23977 whole entry): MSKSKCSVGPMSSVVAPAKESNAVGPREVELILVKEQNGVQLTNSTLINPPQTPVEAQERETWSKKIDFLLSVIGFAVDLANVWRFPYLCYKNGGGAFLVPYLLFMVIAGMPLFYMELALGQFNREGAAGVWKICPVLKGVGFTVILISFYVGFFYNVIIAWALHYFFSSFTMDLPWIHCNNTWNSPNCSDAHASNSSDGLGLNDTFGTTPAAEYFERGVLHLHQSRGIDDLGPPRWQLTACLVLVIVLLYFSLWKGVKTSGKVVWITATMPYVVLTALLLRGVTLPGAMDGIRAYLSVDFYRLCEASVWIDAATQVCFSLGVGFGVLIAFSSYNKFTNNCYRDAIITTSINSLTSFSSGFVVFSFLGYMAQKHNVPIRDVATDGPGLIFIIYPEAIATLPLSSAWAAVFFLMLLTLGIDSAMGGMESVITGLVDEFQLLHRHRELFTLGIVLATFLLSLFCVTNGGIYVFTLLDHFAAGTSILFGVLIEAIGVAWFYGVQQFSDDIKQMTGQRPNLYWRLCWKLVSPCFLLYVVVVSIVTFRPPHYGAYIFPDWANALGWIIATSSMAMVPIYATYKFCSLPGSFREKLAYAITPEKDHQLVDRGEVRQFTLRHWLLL
Put plainly: Inhibitory activity on dopamine (DA) uptake into rat brain synaptosome. The note with it: tritium labeled DA 2 nM uptake, 10 min at 37° C., read-out: 50% inhibitory concentration. As to the method:
Pharmacological Test 3 Evaluation of Inhibitory Activity of Test Compound on Dopamine (DA) into Rat Brain Synaptosome
as §1, with “striata” for “frontal cortices”, “fraction.” for “fractions.”
as §2
Solvent, unlabeled DA, and serial diluted test compounds were added in each well, and synaptosome fraction of 1/10 volume of the final volume were added. After 10-min preincubation at 37° C., the uptake was initiated by the addition of tritium labeled DA solution (final concentration of 2 nM) at 37° C. The uptake was stopped after 10 minutes by filtration under vacuum through a 96-well glass fiber filter plate. After washing the filter with cold physiological saline and drying up, Microscint-0 (Perkin-Elmer) was added and remained radioactivity on the filter was measured.
The uptake activity with only solvent was determined as 100%, and the nonspecific uptake activity with unlabeled DA (final concentration of 10 μM) was determined as 0%. The 50% inhibitory concentrations were calculated based on the concentrations of the test compounds and their inhibitory activities.

T2 sequence (Q63380 1-617): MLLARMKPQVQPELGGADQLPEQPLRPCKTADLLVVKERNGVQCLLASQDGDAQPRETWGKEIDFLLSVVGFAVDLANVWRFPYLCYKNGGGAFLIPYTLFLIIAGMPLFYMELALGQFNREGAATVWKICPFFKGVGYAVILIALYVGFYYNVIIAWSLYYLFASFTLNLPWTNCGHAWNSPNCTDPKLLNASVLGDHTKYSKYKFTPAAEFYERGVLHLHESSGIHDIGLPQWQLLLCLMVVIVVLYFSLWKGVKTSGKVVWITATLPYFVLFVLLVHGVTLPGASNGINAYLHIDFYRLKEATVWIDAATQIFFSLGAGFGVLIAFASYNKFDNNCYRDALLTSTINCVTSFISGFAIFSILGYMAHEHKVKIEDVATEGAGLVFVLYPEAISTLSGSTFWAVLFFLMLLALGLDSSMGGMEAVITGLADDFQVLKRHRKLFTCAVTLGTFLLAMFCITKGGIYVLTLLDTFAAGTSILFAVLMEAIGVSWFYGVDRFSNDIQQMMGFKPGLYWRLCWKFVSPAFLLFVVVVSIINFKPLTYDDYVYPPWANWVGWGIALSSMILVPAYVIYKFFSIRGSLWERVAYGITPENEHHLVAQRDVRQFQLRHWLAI

Turning to `Fc1ccc(N(c2ccc3ncccc3c2)[C@H]2CCNC2)cc1Cl` [Example 913], the figures for the IC50 in experiment [1], in experiment [2] and in experiment [3] were 0.8 nM, 0.8 nM and 6.5 nM, respectively.

As for `N#Cc1ccc(N(c2ccc(F)c(Cl)c2)[C@H]2CCNC2)cn1` [Example 268], the IC50 came to 0.8 nM in experiment [1] and 6.5 nM in experiment [3]. Turning to `Fc1ccc(N(c2cnc3ccccc3c2)[C@H]2CCNC2)cc1Cl` [Example 149], in experiment [1], the IC50 was 1.2 nM. As to `N#Cc1ccc(-c2cncc(N(c3ccc(F)c(Cl)c3)[C@H]3CCNC3)c2)cc1` [Example 272], in experiment [3], the IC50 worked out at 30 nM. Take `Fc1ccc(N(c2ccc3ncsc3c2)[C@H]2CCNC2)cc1Cl` [Example 989]: the IC50 in experiment [1] stood at 0.6 nM; in experiment [2], 0.3 nM; in experiment [3], 5.8 nM. Turning to `Fc1ccc(N(c2ccc3cnsc3c2)[C@H]2CCNC2)cc1` [Example 901], in experiment [1], the IC50 is 0.7 nM. Turning to `c1cncc(N(c2ccc3ccsc3c2)[C@H]2CCNC2)c1` [Example 289], the IC50 is 0.1 nM in experiment [2] and 30.6 nM in experiment [3]. For `CSc1ccc(N(c2ccccc2)[C@H]2CCNC2)cc1` [Example 19], the IC50 in experiment [1] was found to be 0.7 nM. On to `Fc1ccc(N(C2CCCC2)[C@H]2CCNC2)cc1Cl` [Example 306], for which the IC50 in experiment [1] stood at 1.4 nM; in experiment [2], 0.8 nM. In the case of `Clc1ccc(N(c2cnccn2)[C@H]2CCNC2)cc1Cl` [Example 963], the IC50 in experiment [1] stood at 1 nM; in experiment [2], 0.8 nM; in experiment [3], 47.1 nM. For the molecule `c1cc2ccc(N(c3ccc4ccsc4c3)[C@H]3CCNC3)cc2s1` [Example 300], the IC50 in experiment [3] was 9.6 nM. Consider `c1cc(N(c2ccc3ccsc3c2)[C@H]2CCNC2)cs1` [Example 1001], for which the figures for the IC50 in experiment [2] and in experiment [3] were 0.1 nM and 16.4 nM, respectively.

As for `Clc1ccc(N(c2ccccn2)[C@H]2CCNC2)cc1Cl` [Example 188], the IC50 in experiment [2] is 0.1 nM. `Cn1c(=O)ccc2cc(N(c3ccc(F)c(Cl)c3)[C@H]3CCNC3)ccc21` [Example 912]: the IC50 in experiment [1] was 1 nM; in experiment [3] it was 30.2 nM. For `c1ccc(N(c2ccc3cnsc3c2)[C@H]2CCNC2)cc1` [Example 900], the results for the IC50 in experiment [1] and in experiment [2] were 1.5 nM and 0.6 nM, respectively.

For `Clc1ccc(N(c2ccncc2)[C@H]2CCNC2)cc1Cl` [Example 273], the IC50 in experiment [3] worked out at 32.9 nM.

Take `c1ccc(N(c2ccc3sccc3n2)[C@H]2CCNC2)cc1` [Example 934]: the IC50 in experiment [1] was determined as 1.8 nM. As for `CCN1CCN(c2ccc(N(c3ccc(F)c(Cl)c3)[C@H]3CCNC3)nc2)CC1` [Example 201], the IC50 in experiment [3] turned out to be 4.3 nM. Regarding `[O-][n+]1cccc(N(c2ccc(F)c(Cl)c2)[C@H]2CCNC2)c1` [Example 896], the IC50 stood at 2.5 nM in experiment [1] and 0.9 nM in experiment [2]. `c1ccc(N(c2ccc3sccc3c2)[C@H]2CCNC2)cc1` [Example 116]: the results for the IC50 in experiment [2] and in experiment [3] were 0.1 nM and 8.9 nM, respectively.

As for `Fc1ccc(N(c2ccc3ccsc3n2)[C@H]2CCNC2)cc1` [Example 899], the IC50 in experiment [1] came out at 0.7 nM. For `c1cc(N(c2ccc3sccc3c2)[C@H]2CCNC2)cs1` [Example 1002], the IC50 is 0.1 nM in experiment [2] and 32.9 nM in experiment [3].

As to `Fc1ccc(N(c2ccc(N3CCNCC3)cn2)[C@H]2CCNC2)cc1Cl` [Example 200], in experiment [3], the IC50 was found to be 3.8 nM. On the same count and under the same terms, under `Cc1cc(N(c2ccccc2)[C@H]2CCNC2)ccc1F` [Example 46] stands 9.3 nM. In the case of `Clc1ccc(N(c2cccnc2)[C@H]2CCNC2)cc1Cl` [Example 242], the IC50 in experiment [2] amounted to 0.2 nM. On the same count and under the same terms, under `Fc1ccc(N(c2ccccc2)[C@H]2CCNC2)cc1` [Example 20] stands 0.8 nM. For `Cc1cc2ccc(N(c3ccccc3)[C@H]3CCNC3)cc2s1` [Example 903], the IC50 in experiment [1] came to 1.2 nM; in experiment [2] it was 0.7 nM.

Turning to `Fc1ccc(N(CCCCOc2ccccn2)[C@H]2CCNC2)cc1Cl` [Example 5, (3-chloro-4-fluorophenyl)-[4-(pyridin-2-yloxy)butyl]-(S)-pyrrolidin-3-ylamine difumarate], in experiment [1], the IC50 turned out to be 1.6 nM. `N#Cc1ccc(N(c2ccc(F)c(Cl)c2)[C@H]2CCNC2)cc1` [Example 73]: the IC50 is 0.6 nM in experiment [1] and 9 nM in experiment [3].

Turning to `Cc1cc(N(c2cnc3ccccc3c2)[C@H]2CCNC2)ccc1F` [Example 151], the IC50 in experiment [1] was determined as 0.8 nM.

On to `Clc1ccc(N(c2cccnc2)[C@H]2CCNC2)cc1Cl` [Example 256], for which the IC50 in experiment [2] came out at 0.1 nM. On the same count and under the same terms, under `Fc1ccc(N(c2ccc(Cl)nc2)[C@H]2CCNC2)cc1Cl` [Example 244] stands 0.5 nM. As to `c1cc2cc(N(c3ccc4sccc4c3)[C@H]3CCNC3)ccc2s1` [Example 299], in experiment [3], the IC50 is 48.6 nM. As for `Cc1ccc(N(c2ccccc2)[C@H]2CCNC2)cc1` [Example 22], the IC50 in experiment [2] was 2.2 nM. In the case of `N#Cc1ccc(N(c2ccc(Cl)c(Cl)c2)[C@H]2CCNC2)cn1` [Example 270], in experiment [3], the IC50 was 8.2 nM.

As to `c1cncc(N(c2ccc3sccc3c2)[C@H]2CCNC2)c1` [Example 294], in experiment [3], the IC50 was found to be 24 nM. For the molecule `Fc1cncc(N(c2ccc3sccc3c2)[C@H]2CCNC2)c1` [Example 951], the figures for the IC50 in experiment [2] and in experiment [3] were 0.5 nM and 29.8 nM, respectively. On to `Cc1ccc(N(c2cccc(F)c2)[C@H]2CCNC2)cc1Cl` [Example 98], for which, in experiment [2], the IC50 was 0.3 nM. The same measure, in the same setting: under `c1ccc2cc(N(c3ccsc3)[C@H]3CCNC3)ccc2c1` [Example 1000] stands 0.4 nM. As for `Fc1ccc(N(c2ccccc2)[C@H]2CCNC2)cc1Cl` [Example 44], the IC50 in experiment [2] amounted to 0.4 nM; in experiment [3], 8.7 nM. Consider `O=C1CCc2ccc(N(c3ccc(F)cc3)[C@H]3CCNC3)cc2N1` [Example 917], for which, in experiment [1], the IC50 stood at 0.7 nM. Consider `Fc1ccc(N(c2nccs2)[C@H]2CCNC2)cc1Cl` [Example 131], for which the IC50 in experiment [1] was determined as 0.6 nM; in experiment [2], 0.2 nM. For `COc1cccc(N(c2ccc(F)c(Cl)c2)[C@H]2CCNC2)n1` [Example 223], the IC50 in experiment [2] was determined as 0.2 nM. In the case of `Cn1ncc2ccc(N(c3ccc(F)c(Cl)c3)[C@H]3CCNC3)cc21` [Example 990], the IC50 in experiment [2] is 0.8 nM; in experiment [3] it was 26 nM. For the molecule `Clc1ccc(N(c2ccccc2)C2CCNC2)cc1Cl` (stereo not drawn) [Example 1, (3,4-dichlorophenyl)phenylpyrrolidin-3-ylamine dihydrochloride], in experiment [2], the IC50 is 0.6 nM.
